In PMC9127750, “Structure-based design of CDC42 effector interaction inhibitors for the treatment of cancer” (Cell reports, 2022):
Several values for one entry are separate records, joined by “and”; a condition that tells them apart may be missing. Equal values may be shown once.

Tested on: WM3248 melanoma cells, 486 antibodies
Assay: Reverse phase protein arrays (RPPA)
Type: cell-based, Human
Text: Pellets were snap frozen in liquid nitrogen and shipped to MD Anderson Cancer Center core RPPA facility for RPPA analysis (Table S5). Three biological replicates for each sample were generated.
Nomenclatures on the RPPA heatmaps: name_of_antibody.species_of_antibody.status_of_antibody. V - antibody validated; C - validation of antibody in progress; Q - antibody nonspecific; E – under evaluation; antibodies raised in M - mouse, G - goat, R - rabbit, or T - rat.

CN(C)c1cccc(Nc2cc(-c3ccccc3)nc(C3CCNCC3)n2)c1 [ARN22089, N1,N1-dimethyl-N3-(6-phenyl-2-(piperidin-4-yl)pyrimidin-4-yl)benzene-1,3-diamine]
RPPA Gab2.R.V (10 uM, single samples): 0.930 and 0.844
RPPA Gli1.R.C (10 uM, single samples): 0.975 and 0.972
RPPA Gli3.R.C (10 uM, single samples): 0.999 and 0.965 and 0.950
RPPA Glucocorticoid.Receptor.R.V (10 uM, single samples): 1.129 and 1.132 and 0.984
RPPA Glutamate.D1.2.R.V (10 uM, single samples): 1.103 and 0.990
RPPA Glutaminase.R.C (10 uM, single samples): 0.915 and 0.958 and 0.933
RPPA Granzyme.B.R.V (10 uM, single samples): 0.958 and 0.982 and 0.983
RPPA Grp75.R.C (10 uM, single samples): 1.161 and 1.138 and 0.943
RPPA Gys.R.V (10 uM, single samples): 0.976 and 0.935 and 1.023
RPPA Gys_pS641.R.V (10 uM, single samples): 0.940 and 1.033 and 1.049
RPPA H2AX_pS139.R.C (10 uM, single samples): 1.009 and 0.918
RPPA H2AX_pS140.M.C (10 uM, single samples): 1.079 and 1.061
RPPA HER2.M.V (10 uM, single samples): 1.048
RPPA HER2_pY1248.R.V (10 uM, single samples): 0.857 and 0.890 and 0.990
RPPA HER3.R.V (10 uM, single samples): 1.151 and 0.962 and 0.842
RPPA HER3_pY1289.R.C (10 uM, single samples): 0.893 and 0.994
RPPA HES1.R.V (10 uM, single samples): 0.925 and 1.199 and 0.845
RPPA Heregulin.R.V (10 uM, single samples): 0.811 and 0.959 and 0.936
RPPA eEF2K.R.V (10 uM, single samples): 1.065
RPPA eIF4E.R.V (10 uM, single samples): 1.415 and 0.768 and 0.752
RPPA eIF4E_pS209.R.V (10 uM, single samples): 0.931 and 1.049 and 1.085
RPPA eIF4G.R.C (10 uM, single samples): 1.057 and 0.870 and 0.859
RPPA MYH11.R.C Average (20 uM): 1.101
RPPA Myosin.IIa.R.C Average (20 uM): 0.941
RPPA Myosin.IIa_pS1943.R.V Average (20 uM): 0.973
RPPA Myt1.R.C Average (20 uM): 1.012
RPPA N.Cadherin.R.V Average (20 uM): 1.035
RPPA N.Ras.M.V Average (20 uM): 0.928
RPPA NAPSIN.A.R.C Average (20 uM): 1.046
RPPA NDRG1_pT346.R.V Average (20 uM): 0.991
RPPA NDUFB4.R.V Average (20 uM): 1.026
RPPA NRF2.R.C Average (20 uM): 0.936
RPPA Notch1.cleaved.R.V Average (20 uM): 0.890
RPPA Oct.4.R.C Average (20 uM): 1.121
RPPA P.Cadherin.R.C Average (20 uM): 1.190
RPPA PAICS.R.C Average (20 uM): 0.891
RPPA PAK1.R.V Average (20 uM): 0.919
RPPA PAK_pS474_S602_S560.R.V Average (20 uM): 1.203
RPPA PAK_pT423_T402.R.C Average (20 uM): 1.013
RPPA PAR.R.C Average (20 uM): 1.051
RPPA PARG.R.C Average (20 uM): 1.310
RPPA PARP.R.V Average (20 uM): 0.981
RPPA PAX6.R.V Average (20 uM): 1.013
RPPA PAX8.R.C Average (20 uM): 0.970
RPPA PCNA.M.C Average (20 uM): 0.864
RPPA PD.L1.R.C Average (20 uM): 0.983
RPPA PDH.M.V Average (20 uM): 0.994
RPPA PDHA1.R.V Average (20 uM): 1.030
RPPA PDHK1.R.C Average (20 uM): 0.963
RPPA PDK1.R.V Average (20 uM): 1.096
RPPA PDK1_pS241.R.V Average (20 uM): 0.972
RPPA PEA.15.R.V Average (20 uM): 0.952
RPPA PEA.15_pS116.R.V Average (20 uM): 1.019
RPPA PERK.R.V Average (20 uM): 0.988
RPPA PGM1.R.V Average (20 uM): 0.940
RPPA PHGDH.R.C Average (20 uM): 0.998
RPPA PHLPP.R.V Average (20 uM): 1.124
RPPA PI3K.p85.R.C Average (20 uM): 0.900
RPPA PI3K.p110.a.R.C Average (20 uM): 0.931
RPPA PKA.a.R.V Average (20 uM): 0.928
RPPA PKC.a.b.II_pT638_T641.R.V Average (20 uM): 0.926
RPPA PKC.b.II_pS660.R.V Average (20 uM): 1.079
RPPA PKCa.R.V Average (20 uM): 1.559
RPPA PKM2.R.C Average (20 uM): 0.899
RPPA PLC.gamma1_pS1248.R.V Average (20 uM): 0.895
RPPA PLC.gamma2_pY759.R.V Average (20 uM): 0.983
RPPA PLK1.R.C Average (20 uM): 0.920
RPPA PMS2.R.V Average (20 uM): 0.986
RPPA PR.R.V Average (20 uM): 0.956
RPPA PRAS40.M.C Average (20 uM): 1.227
RPPA PRAS40_pT246.R.V Average (20 uM): 1.102
RPPA PRC1_pT481.R.C Average (20 uM): 1.084
RPPA Patched.R.C Average (20 uM): 1.079
RPPA Paxillin.R.C Average (20 uM): 0.827
RPPA Pdcd4.R.C Average (20 uM): 0.990
RPPA Porin.M.V Average (20 uM): 1.051
RPPA p21.R.C Average (20 uM): 0.828
RPPA p27.Kip1.R.C Average (20 uM): 1.157
RPPA p27_pT157.R.C Average (20 uM): 1.214
RPPA p27_pT198.R.V Average (20 uM): 1.156
RPPA p38.MAPK.R.V Average (20 uM): 0.981
